Source: ChEMBL document CHEMBL1143778, “Studies towards the identification of a new generation of atypical antipsychotic agents” (Bioorg Med Chem Lett, 2007)
Several values for one entry are separate records, joined by “and”; a condition that tells them apart may be missing. Equal values may be shown once.

How the values were obtained:
D(3) dopamine receptor [1] = target: T1, D(3) dopamine receptor (Homo sapiens, UniProt P35462); assay: Displacement of [125I]iodosulpiride from human recombinant dopamine D3 receptor expressed in CHO cells; assay type: cell-based
T1 sequence (P35462 whole entry): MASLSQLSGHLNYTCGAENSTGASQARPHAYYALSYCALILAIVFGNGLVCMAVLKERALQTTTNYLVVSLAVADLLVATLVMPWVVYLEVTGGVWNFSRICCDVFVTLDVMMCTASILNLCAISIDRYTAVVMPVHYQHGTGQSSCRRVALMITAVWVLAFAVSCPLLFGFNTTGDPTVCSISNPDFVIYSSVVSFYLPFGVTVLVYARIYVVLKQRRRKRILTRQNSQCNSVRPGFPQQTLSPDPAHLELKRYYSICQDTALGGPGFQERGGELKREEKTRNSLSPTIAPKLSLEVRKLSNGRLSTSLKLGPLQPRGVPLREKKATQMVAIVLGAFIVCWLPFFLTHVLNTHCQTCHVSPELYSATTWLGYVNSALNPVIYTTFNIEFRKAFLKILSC

D(2) dopamine receptor [2] = target: T2, D(2) dopamine receptor (Homo sapiens, UniProt P14416); assay: Displacement of [125I]iodosulpiride from human recombinant dopamine D2 receptor expressed in CHO cells; assay type: cell-based
T2 sequence (P14416 whole entry): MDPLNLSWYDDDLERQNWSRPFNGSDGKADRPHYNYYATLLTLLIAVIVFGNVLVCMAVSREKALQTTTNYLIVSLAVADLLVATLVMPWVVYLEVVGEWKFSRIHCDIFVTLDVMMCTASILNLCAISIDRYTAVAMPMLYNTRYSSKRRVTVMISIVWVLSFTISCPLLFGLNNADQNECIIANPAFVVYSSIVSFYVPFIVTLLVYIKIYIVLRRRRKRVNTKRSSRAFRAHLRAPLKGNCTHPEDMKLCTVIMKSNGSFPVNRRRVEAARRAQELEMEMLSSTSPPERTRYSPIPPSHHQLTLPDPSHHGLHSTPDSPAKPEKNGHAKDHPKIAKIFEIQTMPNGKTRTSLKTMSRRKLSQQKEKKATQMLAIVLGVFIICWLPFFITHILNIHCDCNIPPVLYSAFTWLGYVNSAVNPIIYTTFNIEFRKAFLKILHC

[3] = target: T3, 5-hydroxytryptamine receptor 2A (Homo sapiens, UniProt P28223); assay: Displacement of radioligand from human recombinant 5HT2A receptor
T3 sequence (P28223 whole entry): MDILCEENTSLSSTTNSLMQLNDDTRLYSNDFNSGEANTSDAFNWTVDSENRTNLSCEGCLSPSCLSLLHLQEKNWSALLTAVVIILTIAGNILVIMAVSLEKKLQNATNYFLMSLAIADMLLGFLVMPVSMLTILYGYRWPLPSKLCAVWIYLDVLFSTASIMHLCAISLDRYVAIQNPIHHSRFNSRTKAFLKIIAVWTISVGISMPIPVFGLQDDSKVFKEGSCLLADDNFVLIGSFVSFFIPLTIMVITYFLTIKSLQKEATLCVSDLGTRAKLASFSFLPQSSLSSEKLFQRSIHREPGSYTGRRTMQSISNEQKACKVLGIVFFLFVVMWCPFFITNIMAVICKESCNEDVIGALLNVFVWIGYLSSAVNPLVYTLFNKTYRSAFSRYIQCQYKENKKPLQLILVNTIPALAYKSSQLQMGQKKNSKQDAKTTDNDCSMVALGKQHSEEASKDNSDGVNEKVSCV

[4] = target: T4, 5-hydroxytryptamine receptor 2C (Homo sapiens, UniProt P28335); assay: Displacement of radioligand from human recombinant 5HT2C receptor
T4 sequence (P28335 whole entry): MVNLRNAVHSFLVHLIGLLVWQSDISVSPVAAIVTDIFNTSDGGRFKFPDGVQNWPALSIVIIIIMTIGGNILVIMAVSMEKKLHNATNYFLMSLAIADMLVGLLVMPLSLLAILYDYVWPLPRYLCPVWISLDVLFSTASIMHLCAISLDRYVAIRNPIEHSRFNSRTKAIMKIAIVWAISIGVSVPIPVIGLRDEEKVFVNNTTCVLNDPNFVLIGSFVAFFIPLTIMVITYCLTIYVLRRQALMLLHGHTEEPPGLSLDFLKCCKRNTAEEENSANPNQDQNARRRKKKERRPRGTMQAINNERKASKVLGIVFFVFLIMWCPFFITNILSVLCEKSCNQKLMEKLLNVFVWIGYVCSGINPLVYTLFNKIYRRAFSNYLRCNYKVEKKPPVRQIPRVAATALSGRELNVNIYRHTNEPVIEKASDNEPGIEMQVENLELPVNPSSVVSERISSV

[5] = target: T5, 5-hydroxytryptamine receptor 6 (Homo sapiens, UniProt P50406); assay: Displacement of radioligand from human recombinant 5HT6 receptor
T5 sequence (P50406 whole entry): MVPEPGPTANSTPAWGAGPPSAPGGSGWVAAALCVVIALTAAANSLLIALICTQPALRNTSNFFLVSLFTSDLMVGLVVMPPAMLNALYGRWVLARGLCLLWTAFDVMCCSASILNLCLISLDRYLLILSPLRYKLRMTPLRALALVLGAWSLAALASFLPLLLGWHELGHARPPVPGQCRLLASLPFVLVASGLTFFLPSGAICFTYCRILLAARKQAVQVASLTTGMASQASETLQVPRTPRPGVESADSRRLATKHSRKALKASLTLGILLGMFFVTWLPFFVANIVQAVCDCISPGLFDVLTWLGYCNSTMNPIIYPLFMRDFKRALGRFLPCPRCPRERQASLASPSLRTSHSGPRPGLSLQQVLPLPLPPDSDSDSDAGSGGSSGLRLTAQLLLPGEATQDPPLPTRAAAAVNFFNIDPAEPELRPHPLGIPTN

Cytochrome P450 2C19 = Cytochrome P450 2C19 (Homo sapiens, UniProt P33261); assay: Inhibition of CYP2C19; assay type: ADME
Chain of Cytochrome P450 2C19 (P33261 whole entry): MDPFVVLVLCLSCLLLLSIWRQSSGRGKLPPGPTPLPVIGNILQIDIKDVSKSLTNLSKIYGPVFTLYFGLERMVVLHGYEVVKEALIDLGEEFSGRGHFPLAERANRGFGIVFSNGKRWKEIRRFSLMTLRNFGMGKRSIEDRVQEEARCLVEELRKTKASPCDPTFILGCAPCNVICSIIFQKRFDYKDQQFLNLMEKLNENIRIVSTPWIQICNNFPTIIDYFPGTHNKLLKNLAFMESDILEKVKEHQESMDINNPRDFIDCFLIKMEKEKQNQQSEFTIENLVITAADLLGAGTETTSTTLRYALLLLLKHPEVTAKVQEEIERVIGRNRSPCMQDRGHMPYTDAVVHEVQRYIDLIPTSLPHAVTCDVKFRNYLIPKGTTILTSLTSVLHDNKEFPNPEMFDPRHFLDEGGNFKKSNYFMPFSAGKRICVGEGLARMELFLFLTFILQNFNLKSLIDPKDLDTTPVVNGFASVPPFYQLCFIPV

Cytochrome P450 2C9 = Cytochrome P450 2C9 (Homo sapiens, UniProt P11712); assay: Inhibition of CYP2C9; assay type: ADME
Chain of Cytochrome P450 2C9 (P11712 whole entry): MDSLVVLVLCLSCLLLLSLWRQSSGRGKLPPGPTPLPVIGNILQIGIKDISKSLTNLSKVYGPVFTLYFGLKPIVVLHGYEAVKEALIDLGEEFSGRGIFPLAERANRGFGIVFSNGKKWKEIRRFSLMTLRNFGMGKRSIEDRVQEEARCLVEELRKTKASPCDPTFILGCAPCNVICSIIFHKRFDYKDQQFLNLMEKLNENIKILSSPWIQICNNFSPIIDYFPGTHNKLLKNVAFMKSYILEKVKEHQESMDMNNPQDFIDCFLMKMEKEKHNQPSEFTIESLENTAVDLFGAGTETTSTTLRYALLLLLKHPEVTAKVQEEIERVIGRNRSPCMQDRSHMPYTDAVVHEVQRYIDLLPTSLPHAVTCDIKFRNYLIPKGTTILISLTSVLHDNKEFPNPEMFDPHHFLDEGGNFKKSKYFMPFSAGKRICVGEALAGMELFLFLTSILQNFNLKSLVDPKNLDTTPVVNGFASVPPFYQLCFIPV

Cytochrome P450 2D6 = Cytochrome P450 2D6 (Homo sapiens, UniProt P10635); assay: Inhibition of CYP2D6; assay type: ADME
Chain of Cytochrome P450 2D6 (P10635 whole entry): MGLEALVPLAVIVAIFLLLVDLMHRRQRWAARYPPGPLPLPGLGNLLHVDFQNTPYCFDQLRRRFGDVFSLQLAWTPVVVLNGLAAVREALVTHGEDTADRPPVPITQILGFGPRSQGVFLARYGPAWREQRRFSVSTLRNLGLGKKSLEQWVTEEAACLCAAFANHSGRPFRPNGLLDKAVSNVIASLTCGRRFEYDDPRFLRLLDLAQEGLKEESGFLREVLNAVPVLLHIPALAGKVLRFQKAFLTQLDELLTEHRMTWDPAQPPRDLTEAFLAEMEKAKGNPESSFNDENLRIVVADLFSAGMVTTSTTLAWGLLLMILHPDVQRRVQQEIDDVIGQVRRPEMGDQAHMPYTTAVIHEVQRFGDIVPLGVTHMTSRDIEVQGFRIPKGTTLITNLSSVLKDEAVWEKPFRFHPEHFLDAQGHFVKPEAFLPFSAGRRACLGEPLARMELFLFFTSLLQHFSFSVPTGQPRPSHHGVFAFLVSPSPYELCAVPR

Cytochrome P450 3A4 = Cytochrome P450 3A4 (Homo sapiens, UniProt P08684); assay: Inhibition of CYP3A4; assay type: ADME
Chain of Cytochrome P450 3A4 (P08684 whole entry): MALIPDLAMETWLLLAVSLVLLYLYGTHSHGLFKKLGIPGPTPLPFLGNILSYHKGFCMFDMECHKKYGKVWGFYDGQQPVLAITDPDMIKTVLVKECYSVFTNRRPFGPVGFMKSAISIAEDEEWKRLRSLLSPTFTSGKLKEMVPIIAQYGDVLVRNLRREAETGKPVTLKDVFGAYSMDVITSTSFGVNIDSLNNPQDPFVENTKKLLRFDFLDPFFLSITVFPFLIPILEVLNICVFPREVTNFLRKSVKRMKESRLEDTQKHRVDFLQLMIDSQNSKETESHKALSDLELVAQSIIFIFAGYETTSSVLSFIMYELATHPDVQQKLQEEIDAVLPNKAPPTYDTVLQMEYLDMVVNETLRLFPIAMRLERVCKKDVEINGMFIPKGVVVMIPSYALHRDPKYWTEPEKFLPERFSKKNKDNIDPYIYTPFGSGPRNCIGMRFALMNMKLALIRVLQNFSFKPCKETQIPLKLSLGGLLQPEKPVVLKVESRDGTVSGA

Cytochrome P450 1A2 = target: T6, Cytochrome P450 1A2 (Homo sapiens, UniProt P05177); assay: Inhibition of CYP1A2; assay type: ADME
T6 sequence (P05177 whole entry): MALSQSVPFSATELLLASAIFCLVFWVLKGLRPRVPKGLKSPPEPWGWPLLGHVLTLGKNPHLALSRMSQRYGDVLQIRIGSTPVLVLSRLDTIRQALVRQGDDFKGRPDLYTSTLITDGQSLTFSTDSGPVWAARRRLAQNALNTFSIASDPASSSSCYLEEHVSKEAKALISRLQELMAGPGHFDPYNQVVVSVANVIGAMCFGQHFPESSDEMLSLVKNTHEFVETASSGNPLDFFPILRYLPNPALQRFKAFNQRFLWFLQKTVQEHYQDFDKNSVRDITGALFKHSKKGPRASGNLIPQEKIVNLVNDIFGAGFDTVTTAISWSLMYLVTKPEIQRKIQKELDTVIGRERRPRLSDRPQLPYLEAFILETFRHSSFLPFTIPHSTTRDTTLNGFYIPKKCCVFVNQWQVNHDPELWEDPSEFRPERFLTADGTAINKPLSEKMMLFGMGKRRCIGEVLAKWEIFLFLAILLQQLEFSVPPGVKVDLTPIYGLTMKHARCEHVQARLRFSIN

D(3) dopamine receptor [6] = target: T1, D(3) dopamine receptor; assay: Agonist activity at human dopamine D3 receptor by [35S]GTP-gamma-S binding assay; assay type: functional
D(2) dopamine receptor [7] = target: T2, D(2) dopamine receptor; assay: Agonist activity at human dopamine D2 receptor by [35S]GTPgammaS binding assay; assay type: functional
Rattus norvegicus [8] = assay: Reversal of amphetamine-induced hyperactivity in orally dosed rat; assay type: functional; settings: po
Rattus norvegicus [9] = assay: Toxicity assessed as induction of catalepsy in rat model of extra-pyramidal side effect up to 100 mg/kg, po; assay type: organism-based; parameters: dose 100 mg/kg, route oral; settings: in vivo
[10] = target: T3, 5-hydroxytryptamine receptor 2A; assay: Agonist activity at human 5HT2A receptor by FLIPR assay; assay type: functional
[11] = target: T4, 5-hydroxytryptamine receptor 2C; assay: Agonist activity at human 5HT2C receptor by FLIPR assay; assay type: functional
[12] = target: T5, 5-hydroxytryptamine receptor 6; assay: Agonist activity at human 5HT6 receptor by cAMP assay; assay type: functional

| Ki (D(3) dopamine receptor [1]) | Ki (D(2) dopamine receptor [2]) | Ki [3] [nM] | Ki [4] [nM] | Ki [5] [nM] | SMILES | further results |
| --- | --- | --- | --- | --- | --- | --- |
| 20 nM | 200 nM | 5.01 | 10 | 5.01 | CCCCc1ccc(S(=O)(=O)Nc2ccc3c(c2)CN(C)C3)cc1 |  |
| 2 nM | 31.6 nM | 5.01 | 10 | 1.26 | CCCCc1ccc(S(=O)(=O)Nc2ccc3c(c2)CCN(C)CC3)cc1 | IC50 (Cytochrome P450 2C19): 500 nM; IC50 (Cytochrome P450 2C9): 47000 nM; IC50 (Cytochrome P450 2D6): 1600 nM; IC50 (Cytochrome P450 3A4): 12000 nM; IC50 (Cytochrome P450 1A2): 23000 nM |
| 0.794 nM | 6.31 nM | 15.8 | 39.8 | 31.6 | CC(C)Oc1cc2c(cc1NS(=O)(=O)c1ccc(-c3ccc(Cl)cc3)cc1)CCN(C)CC2 |  |
| 3.98 nM | 100 nM | 5.01 | 15.8 | 12.6 | CC(C)c1cc2c(cc1NS(=O)(=O)c1ccc(-c3ccc(Cl)cc3)cc1)CCN(C)CC2 |  |
| 0.794 nM | 3.98 nM | 25.1 | 39.8 | 10 | COc1cc2c(cc1NS(=O)(=O)c1ccc(-c3ccc(Cl)cc3)cc1)CCN(C)CC2 |  |
| 2.51 nM | 39.8 nM | 31.6 | 39.8 | 50.1 | CN1CCc2cc(Cl)c(NS(=O)(=O)c3ccc(-c4ccc(Cl)cc4)cc3)cc2CC1 |  |
| 6.31 nM | 31.6 nM | 126 | 50.1 | 5.01 | Cc1cc(S(=O)(=O)Nc2ccc3c(c2)CCN(C)CC3)ccc1-c1ccc(Cl)cc1 |  |
| 5.01 nM | 63.1 nM |  | 126 | 50.1 | CN1CCc2cc(Br)c(NS(=O)(=O)c3ccc(-c4ccc(Cl)cc4)cc3)cc2CC1 |  |
| 39.8 nM | 398 nM |  | 126 | 3.98 | CN1CCc2ccc(NS(=O)(=O)c3ccc(-c4ccc(Cl)cc4)s3)cc2CC1 |  |
| 3.98 nM | 50.1 nM | 50.1 | 31.6 | 7.94 | CN1CCc2ccc(NS(=O)(=O)c3ccc(-c4ccc(F)c(Cl)c4)cc3)cc2CC1 |  |
| 25.1 nM | 398 nM |  |  |  | CCCCc1ccc(S(=O)(=O)Nc2ccc3c(c2)CN(C)CC3)cc1 |  |
| 3.16 nM | 50.1 nM | 1.58 | 5.01 | 7.94 | CC(C)Nc1cc2c(cc1NS(=O)(=O)c1ccc(-c3ccc(Cl)cc3)cc1)CCN(C)CC2 | IC50 (Cytochrome P450 2C19): 25000 nM; IC50 (Cytochrome P450 2C9): 17000 nM; IC50 (Cytochrome P450 2D6): 19000 nM; IC50 (Cytochrome P450 3A4): 7500 nM; IC50 (Cytochrome P450 1A2): 51000 nM; EC50 (D(3) dopamine receptor [6]): > 10000 nM; EC50 (D(2) dopamine receptor [7]): > 10000 nM; ED50 (Rattus norvegicus [8]): 20.6 mg/kg; Activity (Rattus norvegicus [9]): Not Active; EC50 [10]: > 12600 nM; EC50 [11]: > 12600 nM; EC50 [12]: > 25100 nM |
| 39.8 nM | 794 nM |  |  | 50.1 | CCCCc1ccc(S(=O)(=O)Nc2ccc3c(c2)CNC3)cc1 |  |
| 15.8 nM | 100 nM | 1260 | 398 | 10 | Cc1noc(C)c1-c1ccc(S(=O)(=O)Nc2ccc3c(c2)CCN(C)CC3)cc1 |  |
| 25.1 nM | 316 nM | 50.1 | 12.6 | 6.31 | Cc1ccc(-c2ccc(S(=O)(=O)Nc3ccc4c(c3)CCN(C)CC4)cc2)s1 |  |
| 15.8 nM | 158 nM | 15.8 | 50.1 | 2 | CCCCc1ccc(S(=O)(=O)Nc2ccc3c(c2)CCNCC3)cc1 |  |
| 15.8 nM | 158 nM | 200 | 20 | 5.01 | CN1CCc2ccc(NS(=O)(=O)c3ccc(-c4ccc(Cl)cc4)cc3)cc2CC1 | IC50 (Cytochrome P450 2C19): 16000 nM; IC50 (Cytochrome P450 2C9): 45000 nM; IC50 (Cytochrome P450 2D6): 1500 nM; IC50 (Cytochrome P450 3A4): 58000 nM; IC50 (Cytochrome P450 1A2): 25000 nM |
| 15.8 nM | 501 nM | 794 | 100 | 25.1 | CN1CCc2ccc(NS(=O)(=O)c3ccc(-c4ccc(C#N)cc4)cc3)cc2CC1 |  |
| 12.6 nM and 10 nM | 794 nM and 1000 nM | 12.6 | 31.6 | 25.1 | CCCCc1ccc(S(=O)(=O)Nc2ccc3c(c2)CNCC3)cc1 | Log Ki [3]: -7.9; Log Ki [4]: -7.5; Log Ki [5]: -7.6 |
| 1.58 nM | 15.8 nM | 20 | 79.4 | 15.8 | Cc1cc2c(cc1NS(=O)(=O)c1ccc(-c3ccc(Cl)cc3)cc1)CCN(C)CC2 |  |
